Molecular target: p53-MDM2 interaction (GST-MDM2 protein aa 23-117 / biotinylated p53 wt peptide) (Homo sapiens (Human), UniProt Q00987)
Assay: Mdm2-p53 Inhibition AlphaScreen
Type: binding
Conditions: GST-MDM2 (aa 23-117) / biotinylated p53 wt peptide
Experimental: Mdm2-p53 Inhibition AlphaScreen
15 μL of compound in 20% DMSO (serial pre-dilutions of compound are done in 100% DMSO) is pipetted to the wells of a white OptiPlate-96 (Perkin Elmer). A mix consisting of 20 nM GST-MDM2 protein (aa 23-117) and 20 nM biotinylated p53 wt peptide (encompassing aa 16-27 of wt human p53, amino acid sequence […]-Ttds-Lys-Biotin, molecular weight 2132.56 g/mol) is prepared in assay buffer (50 mM Tris/HCl pH 7.2; 120 mM NaCl; 0.1% bovine serum albumin (BSA); 5 mM dithiothreitol (DTT); 1 mM ethylenediaminetetraacetic acid (EDTA); 0.01% Tween 20). 30 μL of the mix is added to the compound dilutions and incubated for 15 min at rt while gently shaking the plate at 300 rounds per minute (rpm). Subsequently, 15 μL of premixed AlphaLISA Glutathione Acceptor Beads and AlphaScreen Streptavidin Donor Beads from PerkinElmer (in assay buffer at a concentration of 10 μg/mL each) are added and the samples are incubated for 30 min at rt in the dark (shaking 300 rpm). Afterwards, the signal is measured in a PerkinElmer Envision HIS Multilabel Reader using the AlphaScreen protocol from Perkin Elmer.
Each plate contains negative controls where biotinylated p53-peptide and GST-MDM2 are left out and replaced by assay buffer. Negative control values are entered as low basis value when using the software GraphPad Prism for calculations. Furthermore, a positive control (5% DMSO instead of test compound; with protein/peptide mix) is pipetted. Determination of IC50 values are carried out using GraphPad Prism 3.03 software (or updates thereof).

Sequence of p53-MDM2 interaction (GST-MDM2 protein aa 23-117 / biotinylated p53 wt peptide) (Q00987 23-117): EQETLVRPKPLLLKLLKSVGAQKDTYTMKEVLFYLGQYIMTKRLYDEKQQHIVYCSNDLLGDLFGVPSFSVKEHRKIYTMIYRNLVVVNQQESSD

Row | SMILES | IC50
1 | COC(=O)c1ccc2c3n(nc2c1C)[C@@H]1[C@H](C3)N(CC2CC2)[C@@]2(C(=O)Nc3cc(Cl)ccc32)[C@H]1c1cccc(Cl)c1F [Ia-20] | 23 nM
2 | O=C(O)c1ccc2c3n(nc2c1)[C@@H]1[C@H](C3)N(CC2CC2)[C@@]2(C(=O)Nc3cc(Cl)ccc32)[C@H]1c1cccc(Cl)c1F [Ia-25] | 2 nM
3 | O=C(O)c1ccc2c3n(nc2c1)[C@@H]1[C@H](C3)N(CC2CCC2)[C@@]2(C(=O)Nc3cc(Cl)ccc32)[C@H]1c1cccc(Cl)c1F [Ia-26] | 4 nM
4 | CC(C)CN1[C@H]2Cc3c4ccc(C(=O)O)cc4nn3[C@H]2[C@H](c2cccc(Cl)c2F)[C@]12C(=O)Nc1cc(Cl)ccc12 [Ia-27] | 2 nM
5 | CCCN1[C@H]2Cc3c4ccc(C(=O)O)cc4nn3[C@H]2[C@H](c2cccc(Cl)c2F)[C@]12C(=O)Nc1cc(Cl)ccc12 [Ia-29] | 2 nM
6 | CCN1[C@H]2Cc3c4ccc(C(=O)O)cc4nn3[C@H]2[C@H](c2cccc(Cl)c2F)[C@]12C(=O)Nc1cc(Cl)ccc12 [Ia-30] | 2 nM
7 | COCCN1[C@H]2Cc3c4ccc(C(=O)O)cc4nn3[C@H]2[C@H](c2cccc(Cl)c2F)[C@]12C(=O)Nc1cc(Cl)ccc12 [Ia-31] | 3 nM
8 | CCOc1cccc(CN2[C@H]3Cc4c5ccc(C(=O)O)cc5nn4[C@H]3[C@H](c3cccc(Cl)c3F)[C@]23C(=O)Nc2cc(Cl)ccc23)c1 [Ia-32] | 2 nM
9 | Cc1cc2c3n(nc2cc1C(=O)O)[C@@H]1[C@H](C3)N(CC2CC2)[C@@]2(C(=O)Nc3cc(Cl)ccc32)[C@H]1c1cccc(Cl)c1F [Ia-33] | 3 nM
10 | Cc1c(C(=O)O)ccc2c3n(nc12)[C@@H]1[C@H](C3)N(CC2CC2)[C@@]2(C(=O)Nc3cc(Cl)ccc32)[C@H]1c1cccc(Cl)c1F [Ia-34] | 2 nM
11 | COc1cc2c3n(nc2cc1C(=O)O)[C@@H]1[C@H](C3)N(CC2CC2)[C@@]2(C(=O)Nc3cc(Cl)ccc32)[C@H]1c1cccc(Cl)c1F [Ia-35] | 2 nM
12 | COc1c(C(=O)O)ccc2c3n(nc12)[C@@H]1[C@H](C3)N(CC2CC2)[C@@]2(C(=O)Nc3cc(Cl)ccc32)[C@H]1c1cccc(Cl)c1F [Ia-36] | 5 nM
13 | O=C(O)c1ccc2nn3c(c2c1)C[C@H]1[C@@H]3[C@H](c2cccc(Cl)c2F)[C@]2(C(=O)Nc3cc(Cl)ccc32)N1CC1CC1 [Ia-38] | 2 nM
14 | Cc1cc2c3n(nc2cc1C(=O)O)[C@@H]1[C@H](C3)N(CC(C)C)[C@@]2(C(=O)Nc3cc(Cl)ccc32)[C@H]1c1cccc(Cl)c1F [Ia-39] | 4 nM
15 | CCOc1cccc(CN2[C@H]3Cc4c5cc(C)c(C(=O)O)cc5nn4[C@H]3[C@H](c3cccc(Cl)c3F)[C@]23C(=O)Nc2cc(Cl)ccc23)c1 [Ia-40] | 2 nM
16 | O=C(O)c1ccc2c3n(nc2c1)[C@@H]1[C@H](C3)N(CC2CC2)[C@@]2(C(=O)Nc3cc(Cl)ccc32)[C@H]1c1ccnc(Cl)c1F [Ia-41] | 3 nM
17 | O=C(O)c1ccc2c3n(nc2c1)[C@@H]1[C@H](C3)N(CC2CC2)[C@@]2(C(=O)Nc3nc(Cl)ccc32)[C@H]1c1cccc(Cl)c1F [Ia-43] | 2 nM
18 | CC(C)(O)CNC(=O)c1ccc2c3n(nc2c1)[C@@H]1[C@H](C3)N(CC2CCC2)[C@@]2(C(=O)Nc3cc(Cl)ccc32)[C@H]1c1cccc(Cl)c1F [Ia-46] | 8 nM
19 | O=C(NC1CC1)c1ccc2c3n(nc2c1)[C@@H]1[C@H](C3)N(CC2CCC2)[C@@]2(C(=O)Nc3cc(Cl)ccc32)[C@H]1c1cccc(Cl)c1F [Ia-47] | 9 nM
20 | COCC(COC)NC(=O)c1ccc2c3n(nc2c1)[C@@H]1[C@H](C3)N(CC2CCC2)[C@@]2(C(=O)Nc3cc(Cl)ccc32)[C@H]1c1cccc(Cl)c1F [Ia-48] | 10 nM
21 | COCCOCCNC(=O)c1ccc2c3n(nc2c1)[C@@H]1[C@H](C3)N(CC2CCC2)[C@@]2(C(=O)Nc3cc(Cl)ccc32)[C@H]1c1cccc(Cl)c1F [Ia-49] | 6 nM
22 | CCN1[C@H]2Cc3c4ccc(C(=O)NCCO)cc4nn3[C@H]2[C@H](c2cccc(Cl)c2F)[C@]12C(=O)Nc1cc(Cl)ccc12 [Ia-50] | 4 nM
23 | CCN1[C@H]2Cc3c4ccc(C(=O)NCCN(C)C)cc4nn3[C@H]2[C@H](c2cccc(Cl)c2F)[C@]12C(=O)Nc1cc(Cl)ccc12 [Ia-51] | 7 nM
24 | CCN1[C@H]2Cc3c4ccc(C(=O)N5CCCCC5)cc4nn3[C@H]2[C@H](c2cccc(Cl)c2F)[C@]12C(=O)Nc1cc(Cl)ccc12 [Ia-52] | 69 nM
25 | CCN1[C@H]2Cc3c4ccc(C(=O)NC5(C)COC5)cc4nn3[C@H]2[C@H](c2cccc(Cl)c2F)[C@]12C(=O)Nc1cc(Cl)ccc12 [Ia-53] | 7 nM
26 | CCOc1cccc(CN2[C@H]3Cc4c5cc(C)c(C(=O)N6CCOCC6)cc5nn4[C@H]3[C@H](c3cccc(Cl)c3F)[C@]23C(=O)Nc2cc(Cl)ccc23)c1 [Ia-54] | 13 nM

Row | SMILES | IC50
27 | CCOc1cccc(CN2[C@H]3Cc4c5cc(C)c(C(=O)NCCOC)cc5nn4[C@H]3[C@H](c3cccc(Cl)c3F)[C@]23C(=O)Nc2cc(Cl)ccc23)c1 [Ia-55] | 6 nM
28 | CCOc1cccc(CN2[C@H]3Cc4c5cc(C)c(C(=O)NC)cc5nn4[C@H]3[C@H](c3cccc(Cl)c3F)[C@]23C(=O)Nc2cc(Cl)ccc23)c1 [Ia-56] | 5 nM
29 | CCOc1cccc(CN2[C@H]3Cc4c5cc(C)c(C(=O)N(C)C)cc5nn4[C@H]3[C@H](c3cccc(Cl)c3F)[C@]23C(=O)Nc2cc(Cl)ccc23)c1 [Ia-57] | 13 nM
30 | CCOc1cccc(CN2[C@H]3Cn4c(nc5cc(C(=O)OC)ccc54)[C@H]3[C@H](c3cccc(Cl)c3F)[C@]23C(=O)Nc2cc(Cl)ccc23)c1 [Ib-49] | 5 nM
31 | CS(=O)(=O)c1ccc2c(c1)nc1n2CC[C@H]2[C@@H]1[C@H](c1cccc(Cl)c1F)[C@]1(C(=O)Nc3cc(Cl)ccc31)N2CC1CC1 [Ib-57] | 12 nM
32 | CS(=O)(=O)c1ccc2c(c1)nc1n2CC[C@H]2[C@@H]1[C@H](c1cccc(Cl)c1F)[C@]1(C(=O)Nc3cc(Cl)ccc31)N2CC1CC1 [Ib-58] | 7 nM
33 | CC(=O)Nc1ccc2c(c1)nc1n2CC[C@H]2[C@@H]1[C@H](c1cccc(Cl)c1F)[C@]1(C(=O)Nc3cc(Cl)ccc31)N2CC1CC1 [Ib-59] | 15 nM
34 | COC(=O)c1ccc2c(c1)nc1n2CC[C@H]2[C@@H]1[C@H](c1cccc(Cl)c1F)[C@]1(C(=O)Nc3cc(Cl)ccc31)N2CC=C(C)C [Ib-66] | 166 nM
35 | O=C(O)c1ccc2c(c1)nc1n2CC[C@H]2[C@@H]1[C@H](c1cccc(Cl)c1F)[C@]1(C(=O)Nc3cc(Cl)ccc31)N2CC1CC1 [Ib-106] | 3 nM
36 | O=C(O)c1ccc2c(c1)nc1n2CC[C@H]2[C@@H]1[C@H](c1cccc(Cl)c1F)[C@]1(C(=O)Nc3cc(Cl)ccc31)N2CC1CC1 [Ib-107] | 2 nM
37 | O=C(O)c1ccc2c(c1)nc1n2CC[C@@H]2[C@H]1[C@@H](c1cccc(Cl)c1F)[C@@]1(C(=O)Nc3cc(Cl)ccc31)N2CC1CC1 [Ib-108] | 79 nM
38 | CC(C)CN1[C@H]2CCn3c(nc4cc(C(=O)O)ccc43)[C@H]2[C@H](c2cccc(Cl)c2F)[C@]12C(=O)Nc1cc(Cl)ccc12 [Ib-109] | 8 nM
39 | CC(C)CN1[C@H]2CCn3c(nc4cc(C(=O)O)ccc43)[C@H]2[C@H](c2cccc(Cl)c2F)[C@]12C(=O)Nc1cc(Cl)ccc12 [Ib-110] | 3 nM
40 | CCN1[C@H]2CCn3c(nc4cc(C(=O)O)ccc43)[C@H]2[C@H](c2cccc(Cl)c2F)[C@]12C(=O)Nc1cc(Cl)ccc12 [Ib-111] | 7 nM
41 | CCCN1[C@H]2CCn3c(nc4cc(C(=O)O)ccc43)[C@H]2[C@H](c2cccc(Cl)c2F)[C@]12C(=O)Nc1cc(Cl)ccc12 [Ib-113] | 4 nM
42 | CCCCN1[C@H]2CCn3c(nc4cc(C(=O)O)ccc43)[C@H]2[C@H](c2cccc(Cl)c2F)[C@]12C(=O)Nc1cc(Cl)ccc12 [Ib-115] | 7 nM
43 | CCCCCN1[C@H]2CCn3c(nc4cc(C(=O)O)ccc43)[C@H]2[C@H](c2cccc(Cl)c2F)[C@]12C(=O)Nc1cc(Cl)ccc12 [Ib-117] | 8 nM
44 | CC(C)CCN1[C@H]2CCn3c(nc4cc(C(=O)O)ccc43)[C@H]2[C@H](c2cccc(Cl)c2F)[C@]12C(=O)Nc1cc(Cl)ccc12 [Ib-119] | 12 nM
45 | CC(C)=CCN1[C@H]2CCn3c(nc4cc(C(=O)O)ccc43)[C@H]2[C@H](c2cccc(Cl)c2F)[C@]12C(=O)Nc1cc(Cl)ccc12 [Ib-121] | 11 nM
46 | O=C(O)c1ccc2c(c1)nc1n2CC[C@H]2[C@@H]1[C@H](c1cccc(Cl)c1F)[C@]1(C(=O)Nc3cc(Cl)ccc31)N2CC1CCC1 [Ib-123] | 4 nM
47 | O=C(O)c1ccc2c(c1)nc1n2CC[C@H]2[C@@H]1[C@H](c1cccc(Cl)c1F)[C@]1(C(=O)Nc3cc(Cl)ccc31)N2CC1CC(F)(F)C1 [Ib-125] | 14 nM
48 | COCCN1[C@H]2CCn3c(nc4cc(C(=O)O)ccc43)[C@H]2[C@H](c2cccc(Cl)c2F)[C@]12C(=O)Nc1cc(Cl)ccc12 [Ib-127] | 11 nM
49 | CC(C)OCCN1[C@H]2CCn3c(nc4cc(C(=O)O)ccc43)[C@H]2[C@H](c2cccc(Cl)c2F)[C@]12C(=O)Nc1cc(Cl)ccc12 [Ib-129] | 10 nM
50 | CC(C)(C)OCCN1[C@H]2CCn3c(nc4cc(C(=O)O)ccc43)[C@H]2[C@H](c2cccc(Cl)c2F)[C@]12C(=O)Nc1cc(Cl)ccc12 [Ib-131] | 22 nM
51 | CS(=O)(=O)CCCN1[C@H]2CCn3c(nc4cc(C(=O)O)ccc43)[C@H]2[C@H](c2cccc(Cl)c2F)[C@]12C(=O)Nc1cc(Cl)ccc12 [Ib-133] | 58 nM

Source: patent publication US10717742B2, “Spiro[3H-indole-3,2′-pyrrolidin]-2(1H)-one compounds and derivatives as MDM2-P53 inhibitors” (Boehringer Ingelheim International GmbH, priority 2015, dated 2020)
